Where “and” joins values, the source holds several entries; their conditions need not be identical. Equal entries are not always repeated. Blank lines part the entries; values can stand above or below the molecule they belong to.
Experiment: 3-Month stability data for TTI-101 Batches B, C, D and E stored at 40° C./75% RH
Format: physicochemical
Procedure: Exemplary HPLC conditions: diluent was 0.1% trifluoroacetic acid (TFA) in acetonitrile, Mobile Phase A was 0.05% TFA in water, and Mobile Phase B was 0.05% TFA in acetonitrile, column (Agilent, Eclipse XDB-C18, 3.0×100 mm, particle size 1.8 μm), flow (0.425 mL/min), and detector (280 nm diode array).
Batches B, C, and D were prepared according to Method 5, Method 4, and Method 3, respectively, as described in Example 1. Batch E was prepared analogously using according to Method 1 as described in Example 1.
Samples of TTI-101 (Batches B, C, D, and E) were stored at 40° C./75% RH for 3 months. The batches were individually stored in an low density polyethylene (LDPE) bag enclosed with a Nylon cable tie and then transferred to another LDPE bag and enclosed with a Nylon cable tie. The enclosure was put into a high density polyethylene (HDPE) bottle and closed with a polyethylene-lined polypropylene cap. For Batch B only, another sample was enclosed in a screw-top amber glass bottle and closed with a cap. The samples were stored under the above-identified conditions.

Impurities Total, Area % (0 M): 0.2 Area % | Impurity RRT 0.39, Area % (0 M): 0.06 Area % | Impurity RRT 0.49, Area % (0 M): NQ (≥0.02% and <0.05%) | Impurity RRT 0.54, Area % (0 M): NQ (≥0.02% and <0.05%) | Impurity RRT 0.99, Area % (0 M): NQ (≥0.02% and <0.05%) | Impurity RRT 1.16 (Cmp 6), Area % (0 M): 0.12 Area % | Impurities Total, Area % (1 M): 0.3 Area % | Impurity RRT 0.80, Area % (1 M): NQ (≥0.02% and <0.05%) | Impurity RRT 0.84, Area % (1 M): NQ (≥0.02% and <0.05%) | Impurity RRT 0.87, Area % (1 M): NQ (≥0.02% and <0.05%) | Impurity RRT 0.99, Area % (1 M): 0.05 Area % | Impurity RRT 1.02, Area % (1 M): 0.06 Area % | Impurity RRT 1.06 (Cmp 4), Area % (1 M): NQ (≥0.02% and <0.05%) | Impurity RRT 1.17 (Cmp 6), Area % (1 M): 0.23 Area % | Impurity RRT 1.39, Area % (1 M): NQ (≥0.02% and <0.05%) | Impurities Total, Area % (2 M): 0.4 Area % | Impurity RRT 0.39, Area % (2 M): NQ (≥0.02% and <0.05%) | Impurity RRT 0.80, Area % (2 M): NQ (≥0.02% and <0.05%) | Impurity RRT 0.84, Area % (2 M): NQ (≥0.02% and <0.05%) | Impurity RRT 0.87, Area % (2 M): NQ (≥0.02% and <0.05%) | Impurity RRT 0.99, Area % (2 M): NQ (≥0.02% and <0.05%) | Impurity RRT 1.02, Area % (2 M): 0.10 Area % | Impurity RRT 1.05, Area % (2 M): NQ (≥0.02% and <0.05%) | Impurity RRT 1.06 (Cmp 4), Area % (2 M): NQ (≥0.02% and <0.05%) | Impurity RRT 1.17 (Cmp 6), Area % (2 M): 0.323 Area % and 0.23 Area % | Impurity RRT 1.39, Area % (2 M): 0.09 Area % | Impurities Total, Area % (3 M): 2.9 Area % | Impurity RRT 0.40, Area % (3 M): NQ (≥0.02% and <0.05%) | Impurity RRT 0.85, Area % (3 M): NQ (≥0.02% and <0.05%) | Impurity RRT 0.88, Area % (3 M): NQ (≥0.02% and <0.05%) | Impurity RRT 0.98, Area % (3 M): NQ (≥0.02% and <0.05%) | Impurity RRT 1.02, Area % (3 M): 0.13 Area % | Impurity RRT 1.06 (Cmp 4), Area % (3 M): NQ (≥0.02% and <0.05%) | Impurity RRT 1.10, Area % (3 M): NQ (≥0.02% and <0.05%) | Impurity RRT 1.13, Area % (3 M): NQ (≥0.02% and <0.05%) | Impurity RRT 1.16 (Cmp 6), Area % (3 M): 2.6 Area % | Impurity RRT 1.38 (1.39), Area % (3 M): 0.14 Area % | Purity (%) (T = 0 month (0 M)): 99.8% and 99.6% | Purity (%) (T = 1 month (1 M)): 99.5% | Purity (%) (T = 2 months (2 M)): 99.4% | Purity (%) (T = 3 months (3 M)): 97.0%
Compound: COc1ccc(S(=O)(=O)Nc2cc(-c3c(O)ccc4ccccc34)c(O)c3ccccc23)cc1 [Batch B (glass storage)]

Impurities Total, Area % (0 M): 0.2 Area % | Impurity RRT 0.39, Area % (0 M): 0.06 Area % | Impurity RRT 0.49, Area % (0 M): NQ (≥0.02% and <0.05%) | Impurity RRT 0.54, Area % (0 M): NQ (≥0.02% and <0.05%) | Impurity RRT 0.99, Area % (0 M): NQ (≥0.02% and <0.05%) | Impurity RRT 1.16 (Cmp 6), Area % (0 M): 0.12 Area % | Impurities Total, Area % (1 M): 0.1 Area % and 0.3 Area % | Impurity RRT 0.80, Area % (1 M): NQ (≥0.02% and <0.05%) | Impurity RRT 0.84, Area % (1 M): NQ (≥0.02% and <0.05%) | Impurity RRT 0.87, Area % (1 M): NQ (≥0.02% and <0.05%) | Impurity RRT 0.99, Area % (1 M): NQ (≥0.02% and <0.05%) | Impurity RRT 1.02, Area % (1 M): 0.05 Area % | Impurity RRT 1.05, Area % (1 M): NQ (≥0.02% and <0.05%) | Impurity RRT 1.06 (Cmp 4), Area % (1 M): NQ (≥0.02% and <0.05%) | Impurity RRT 1.17 (Cmp 6), Area % (1 M): 0.24 Area % | Impurity RRT 1.39, Area % (1 M): NQ (≥0.02% and <0.05%) | Impurities Total, Area % (2 M): 0.6 Area % | Impurity RRT 0.39, Area % (2 M): NQ (≥0.02% and <0.05%) | Impurity RRT 0.51, Area % (2 M): 0.06 Area % | Impurity RRT 0.80, Area % (2 M): NQ (≥0.02% and <0.05%) | Impurity RRT 0.84, Area % (2 M): NQ (≥0.02% and <0.05%) | Impurity RRT 0.87, Area % (2 M): NQ (≥0.02% and <0.05%) | Impurity RRT 0.99, Area % (2 M): NQ (≥0.02% and <0.05%) | Impurity RRT 1.02, Area % (2 M): 0.11 Area % | Impurity RRT 1.05, Area % (2 M): NQ (≥0.02% and <0.05%) | Impurity RRT 1.06 (Cmp 4), Area % (2 M): NQ (≥0.02% and <0.05%) | Impurity RRT 1.17 (Cmp 6), Area % (2 M): 0.32 Area % | Impurity RRT 1.39, Area % (2 M): 0.10 Area % and 0.1 Area % | Impurities Total, Area % (3 M): 3.2 Area % | Impurity RRT 0.40, Area % (3 M): NQ (≥0.02% and <0.05%) | Impurity RRT 0.85, Area % (3 M): NQ (≥0.02% and <0.05%) | Impurity RRT 0.88, Area % (3 M): NQ (≥0.02% and <0.05%) | Impurity RRT 0.98, Area % (3 M): NQ (≥0.02% and <0.05%) | Impurity RRT 1.02, Area % (3 M): 0.13 Area % | Impurity RRT 1.05, Area % (3 M): NQ (≥0.02% and <0.05%) | Impurity RRT 1.06 (Cmp 4), Area % (3 M): NQ (≥0.02% and <0.05%) | Impurity RRT 1.13, Area % (3 M): NQ (≥0.02% and <0.05%) | Impurity RRT 1.16 (Cmp 6), Area % (3 M): 2.9 Area % | Impurity RRT 1.38 (1.39), Area % (3 M): 0.16 Area % | Purity (%) (T = 0 month (0 M)): 99.8% and 99.6% | Purity (%) (T = 1 month (1 M)): 99.5% | Purity (%) (T = 2 months (2 M)): 99.2% | Purity (%) (T = 3 months (3 M)): 96.6%
Compound: COc1ccc(S(=O)(=O)Nc2cc(-c3c(O)ccc4ccccc34)c(O)c3ccccc23)cc1 [Batch B (LDPE storage)]
